Results published in patent US20240173440A1, “HIGH PURITY COPPER RADIOPHARMACEUTICAL COMPOSITIONS AND DIAGNOSTIC AND THERAPEUTIC USES THEREOF” (Nuclidium AG, priority 2022, published 2024).

Assays:
hFAP = hFAP (Homo sapiens (Human), UniProt Q12884); experiment: Saturation binding on isolated HEK-293.hFAP cell membranes; parameters: Bmax: unit not given here; conditions: 37° C.
Experimental: The cells were homogenized using Ultra-Turrax, and the homogenized suspension was centrifuged at 500×g for 10 min at 4° C. The supernatant was collected in centrifuge tubes (Beckman Coulter Inc., Brea, CA, USA). This procedure was then repeated 5 times. The collected supernatant was centrifuged in an ultra-centrifuge (Beckman) at 4° C. for 55 min at 49,000×g. Then, the pellet was re-suspended in 10 mM ice-cold HEPES buffer (pH 7.5), aliquoted, and stored at −80° C. The protein concentration of those membrane suspensions was determined by the Bradford method, BSA as the standard.
Each assay tube contained 170 μL of binding buffer (20 mM HEPES, pH 7.4, containing 4 mM μgCl2, 0.2% BSA, 20 μg/L bacitracin, 20 μg/L PMSF and 200,000 KIU/L aprotinin). The incubation was initiated by adding 30 μL of radioligand solution at 10 times the final concentration and 100 μL of cell membrane suspension to yield 10 μg of protein per well. For the determination of the non-specific binding, 140 μL of the above binding buffer was added along with 30 μL of FAPI-46 to obtain (0.1 mM). Bound fractions were plotted versus the corresponding radioligand concentration at equilibrium. The dissociation constant (KD) and maximal binding capacity (Bmax) values were calculated using GraphPad Software Inc., Prism 7, San Diego, CA, USA (Table 33 and FIG. 21).

[1] = Remaining PET activity in the mouse body 4h p.i.; format: in vivo; conditions: mice
Experimental: PET/CT Imaging: Mice bearing FAP-positive and FAP-negative xenografts were injected intravenously with ^61Cu-labeled radioligands of the present disclosure or ^61Cu-NODAGA-FAPI-46 (100 μL/[…]/6-12 MBq). […] The mice were euthanized by CO2 at 4 hours p.i., and static PET scans were acquired for 30 min.
Remaining PET activity in the mouse body 4h p.i. prior to the 4h scan was determined (Table 36).

[2] = test system: HT-1080.hFAP and HT-1080.wt xenografts; experiment: Quantitative biodistribution in HT-1080.hFAP and HT-1080.wt xenografted mice; format: in vivo; conditions: for Biodistribution HT-1080.wt: FAP-negative tumor; for Biodistribution HT-1080.hFAP: FAP-positive tumor
Experimental: The tumors were allowed to grow to an average volume of 100-200 mm3.
Biodistribution Studies: The xenografted mice were randomized (n=5 per group) and injected intravenously via the tail vein with the ^61Cu-labeled radioligands (100 μL, […], 0.8-1MBq). Mice were euthanized 1h and 4h pi. by CO2 asphyxiation. Organs of interest and blood were collected, rinsed of excess blood, blotted dry, weighed, and counted in a […]. The samples were counted against a suitably diluted aliquot of the injected solution as the standard and the results are expressed as the percentage of the injected activity per gram of tissue (0% I.A./g)+SD.

HT-1080.hFAP cells = experiment: In vitro cellular uptake (cell surface and internalized fractions) in HT-1080.hFAP cells; format: cell-based, human
Experimental: (§1) The cellular uptake was studied in vitro using intact cells seeded in 6-well plates overnight. On the day of the experiment, the cells were washed and incubated with each of the exemplified [^61Cu]Cu-radiotracer at different time points, either alone or in the presence of a blocking agent to distinguish between specific and non-specific uptake. At each investigated time point, the medium containing the unbound (free) radiotracer was removed, followed by two washing steps with ice-cold phosphate-buffered saline. The cells were then treated 2×5 min with ice-cold glycine solution (0.05 M, pH 2.8) to detach the cell surface-bound radiotracer (acid released). Afterwards, the cells containing the internalized radiotracer were detached with 1 M NaOH at 37° C. and collected for measurement. The amount of specific cell surface-bound and internalized radiotracer is expressed as percentage of the total applied activity, after subtracting the non-specific values.
as §1, with “^61Cu-labeled conjugate” for “of the exemplified [^61Cu]Cu-radiotracer”
The cells were then preconditioned in 360 μL of assay medium (MEM medium without supplements) at 37° C. for 60 min. 40 μL of a 2 nM solution of ^61Cu-labeled radioligand was added and the cells were incubated at 37° C. The cellular uptake was interrupted at different time points (15 min, 1 hour and 4 hours), by washing twice with ice-cold PBS. Cell surface-bound radioligand was obtained by washing cells twice with ice-cold glycine buffer (pH 2.8), followed by a collection of the internalized fraction with 1 M NaOH. The activity in each fraction was measured in a γ-counter (Cobra II).

[3] = 1 h p.i., HT-1080.hFAP and HT-1080.wt xenografts
[4] = 4 h p.i., HT-1080.hFAP and HT-1080.wt xenografts
[5] = HT-1080.hFAP and HT-1080.wt xenografts

Sequence of hFAP (Q12884 whole entry): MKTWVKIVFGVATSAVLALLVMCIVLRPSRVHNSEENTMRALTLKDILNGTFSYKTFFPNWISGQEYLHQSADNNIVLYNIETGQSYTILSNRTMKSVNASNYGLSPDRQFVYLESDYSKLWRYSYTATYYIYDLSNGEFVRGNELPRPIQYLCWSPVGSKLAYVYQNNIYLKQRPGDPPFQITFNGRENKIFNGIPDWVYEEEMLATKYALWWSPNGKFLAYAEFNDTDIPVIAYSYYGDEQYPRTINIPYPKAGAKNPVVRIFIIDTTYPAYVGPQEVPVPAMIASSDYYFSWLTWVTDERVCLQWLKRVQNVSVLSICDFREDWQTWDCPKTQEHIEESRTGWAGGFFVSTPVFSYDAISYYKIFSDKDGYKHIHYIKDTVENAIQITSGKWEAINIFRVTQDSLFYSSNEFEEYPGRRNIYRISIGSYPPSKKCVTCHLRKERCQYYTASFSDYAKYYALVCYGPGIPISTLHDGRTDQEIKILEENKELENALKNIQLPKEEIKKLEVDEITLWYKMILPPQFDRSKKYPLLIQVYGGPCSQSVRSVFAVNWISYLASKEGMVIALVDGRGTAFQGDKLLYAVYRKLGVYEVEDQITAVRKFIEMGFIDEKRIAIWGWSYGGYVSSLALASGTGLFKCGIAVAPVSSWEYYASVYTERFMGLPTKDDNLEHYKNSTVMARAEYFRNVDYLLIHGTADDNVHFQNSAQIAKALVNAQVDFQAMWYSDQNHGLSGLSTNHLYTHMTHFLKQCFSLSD

SMILES: N#C[C@@H]1CC(F)(F)CN1C(=O)CNC(=O)c1ccnc2ccc(NC(=O)CCC(=O)NCCNC(=O)CC[C@H](C(=O)O)N3CCN4CCN(CC3)CC(=O)[O][61Cu][O]C(=O)C4)cc12 [[^61Cu]Cu-NODAGA-F1]
- Bmax (hFAP): 8.6-9.2
- retention in the body (remaining PET activity) [1]: highest retention in the body
- Biodistribution Spleen ([2]; 1 hour p.i.): 0.8 ± 0.1 % I.A./g
- Biodistribution Adrenal [2, 3]: 2.3 ± 0.5 % IA/g
- Biodistribution Blood [2, 3]: 2.3 ± 0.1 % IA/g
- Biodistribution Femur [2, 3]: 10.9 ± 1.1 % IA/g
- Biodistribution HT1080.hFAP (FAP-positive tumor) [2, 3]: 12.6 ± 1.5 % IA/g
- Biodistribution HT1080.wt (FAP-negative tumor) [2, 3]: 4.5 ± 0.6 % IA/g
- Biodistribution Heart [2, 3]: 1.2 ± 0.3 % IA/g
- Biodistribution Intestine [2, 3]: 1.7 ± 0.4 % IA/g
- Biodistribution Kidney [2, 3]: 2.4 ± 0.3 % IA/g
- Biodistribution Liver [2, 3]: 1.5 ± 0.0 % IA/g
- Biodistribution Lung [2, 3]: 1.8 ± 0.0 % IA/g
- Biodistribution Muscle [2, 3]: 2.6 ± 0.7 % IA/g
- Biodistribution Pancreas [2, 3]: 2.5 ± 0.3 % IA/g
- Biodistribution Spleen [2, 3]: 0.8 ± 0.1 % IA/g
- Biodistribution Stomach [2, 3]: 1.1 ± 0.2 % IA/g
- Biodistribution Heart ([2]; 4 hours p.i.): 0.7 ± 0.1 % I.A./g
- Biodistribution Liver ([2]; 4 hours p.i.): 1.0 ± 0.2 % I.A./g
- Biodistribution Lung ([2]; 4 hours p.i.): 0.8 ± 0.2 % I.A./g
- Biodistribution Spleen ([2]; 4 hours p.i.): 0.5 ± 0.1 % I.A./g
- Biodistribution Stomach ([2]; 4 hours p.i.): 0.7 ± 0.1 % I.A./g
- Biodistribution Adrenal [2, 4]: 1.4 ± 0.2 % IA/g
- Biodistribution Blood [2, 4]: 1.2 ± 0.3 % IA/g
- Biodistribution Femur [2, 4]: 4.2 ± 1.5 % IA/g
- Biodistribution HT1080.hFAP (FAP-positive tumor) [2, 4]: 7.1 ± 3.0 % IA/g
- Biodistribution HT1080.wt (FAP-negative tumor) [2, 4]: 2.1 ± 0.5 % IA/g
- Biodistribution Heart [2, 4]: 0.7 ± 0.1 % IA/g
- Biodistribution Intestine [2, 4]: 1.1 ± 0.4 % IA/g
- Biodistribution Kidney [2, 4]: 1.5 ± 0.5 % IA/g
- Biodistribution Liver [2, 4]: 1.0 ± 0.2 % IA/g
- Biodistribution Lung [2, 4]: 0.8 ± 0.2 % IA/g
- Biodistribution Muscle [2, 4]: 1.3 ± 0.1 % IA/g
- Biodistribution Pancreas [2, 4]: 1.4 ± 0.2 % IA/g
- Biodistribution Spleen [2, 4]: 0.5 ± 0.1 % IA/g
- Biodistribution Stomach [2, 4]: 0.7 ± 0.1 % IA/g
- Biodistribution HT-1080.wt ([2]; 1 hour p.i.): 4.5 ± 0.6 % I.A./g
- Biodistribution HT-1080.wt ([2]; 4 hours p.i.): 2.1 ± 0.5 % I.A./g
- Biodistribution HT-1080.hFAP ([2]; 1 hour p.i.): 12.6 ± 1.5 % I.A./g
- Biodistribution HT-1080.hFAP ([2]; 4 hours p.i.): 7.1 ± 3.0 % I.A./g
- accumulation in tumor and target-positive tissues [2, 5]: high accumulation in FAP-positive (HT-1080.hFAP) tumor and murine-FAP-positive tissues

SMILES: N#C[C@@H]1CC(F)(F)CN1C(=O)CNC(=O)c1ccnc2ccc(NC(=O)CCC(=O)N3CCN(C(=O)CC[C@H](C(=O)O)N4CCN5CCN(CC4)CC(=O)[O][61Cu][O]C(=O)C5)CC3)cc12 [[^61Cu]Cu-NODAGA-F3]
- Bmax (hFAP): 7.3-8.1
- Biodistribution Heart ([2]; 1 hour p.i.): 0.7 ± 0.1 % I.A./g
- Biodistribution Intestine ([2]; 1 hour p.i.): 0.8 ± 0.2 % I.A./g
- Biodistribution Liver ([2]; 1 hour p.i.): 0.9 ± 0.1 % I.A./g
- Biodistribution Spleen ([2]; 1 hour p.i.): 0.5 ± 0.1 % I.A./g
- Biodistribution Stomach ([2]; 1 hour p.i.): 0.8 ± 0.1 % I.A./g
- Biodistribution Adrenal [2, 3]: 2.1 ± 0.6 % IA/g
- Biodistribution Blood [2, 3]: 1.7 ± 0.1 % IA/g
- Biodistribution Femur [2, 3]: 5.4 ± 1.2 % IA/g
- Biodistribution HT1080.hFAP (FAP-positive tumor) [2, 3]: 7.9 ± 0.9 % IA/g
- Biodistribution HT1080.wt (FAP-negative tumor) [2, 3]: 4.0 ± 2.2 % IA/g
- Biodistribution Heart [2, 3]: 0.7 ± 0.1 % IA/g
- Biodistribution Intestine [2, 3]: 0.8 ± 0.2 % IA/g
- Biodistribution Kidney [2, 3]: 1.6 ± 0.3 % IA/g
- Biodistribution Liver [2, 3]: 0.9 ± 0.1 % IA/g
- Biodistribution Lung [2, 3]: 1.2 ± 0.1 % IA/g
- Biodistribution Muscle [2, 3]: 2.1 ± 0.8 % IA/g
- Biodistribution Pancreas [2, 3]: 1.6 ± 0.2 % IA/g
- Biodistribution Spleen [2, 3]: 0.5 ± 0.1 % IA/g
- Biodistribution Stomach [2, 3]: 0.8 ± 0.1 % IA/g
- Biodistribution Blood ([2]; 4 hours p.i.): 0.9 ± 0.0 % I.A./g
- Biodistribution Heart ([2]; 4 hours p.i.): 0.5 ± 0.0 % I.A./g
- Biodistribution Intestine ([2]; 4 hours p.i.): 0.4 ± 0.1 % I.A./g
- Biodistribution Kidneys ([2]; 4 hours p.i.): 1.0 ± 0.2 % I.A./g
- Biodistribution Liver ([2]; 4 hours p.i.): 0.7 ± 0.1 % I.A./g
- Biodistribution Lung ([2]; 4 hours p.i.): 0.7 ± 0.1 % I.A./g
- Biodistribution Pancreas ([2]; 4 hours p.i.): 0.9 ± 0.0 % I.A./g
- Biodistribution Spleen ([2]; 4 hours p.i.): 0.3 ± 0.0 % I.A./g
- Biodistribution Stomach ([2]; 4 hours p.i.): 0.5 ± 0.0 % I.A./g
- Biodistribution Adrenal [2, 4]: 1.4 ± 0.3 % IA/g
- Biodistribution Blood [2, 4]: 0.9 ± 0.0 % IA/g
- Biodistribution Femur [2, 4]: 3.7 ± 0.3 % IA/g
- Biodistribution HT1080.hFAP (FAP-positive tumor) [2, 4]: 6.4 ± 2.0 % IA/g
- Biodistribution HT1080.wt (FAP-negative tumor) [2, 4]: 1.8 ± 0.3 % IA/g
- Biodistribution Heart [2, 4]: 0.5 ± 0.0 % IA/g
- Biodistribution Intestine [2, 4]: 0.4 ± 0.1 % IA/g
- Biodistribution Kidney [2, 4]: 1.0 ± 0.2 % IA/g
- Biodistribution Liver [2, 4]: 0.7 ± 0.1 % IA/g
- Biodistribution Lung [2, 4]: 0.7 ± 0.1 % IA/g
- Biodistribution Muscle [2, 4]: 1.1 ± 0.1 % IA/g
- Biodistribution Pancreas [2, 4]: 0.9 ± 0.0 % IA/g
- Biodistribution Spleen [2, 4]: 0.3 ± 0.0 % IA/g
- Biodistribution Stomach [2, 4]: 0.5 ± 0.0 % IA/g
- Biodistribution HT-1080.wt ([2]; 1 hour p.i.): 4.0 ± 2.2 % I.A./g
- Biodistribution HT-1080.wt ([2]; 4 hours p.i.): 1.8 ± 0.3 % I.A./g
- Biodistribution HT-1080.hFAP ([2]; 1 hour p.i.): 7.9 ± 0.9 % I.A./g
- Biodistribution HT-1080.hFAP ([2]; 4 hours p.i.): 6.4 ± 2.0 % I.A./g
- accumulation in tumor and target-positive tissues [2, 5]: high accumulation in FAP-positive (HT-1080.hFAP) tumor and murine-FAP-positive tissues
- Cell surface fraction (HT-1080.hFAP cells; 15 min, HT-1080.hFAP cells, specific uptake (minus HT-1080.wt)): 0.9 ± 0.3 % of the applied activity
- Cell surface fraction (HT-1080.hFAP cells; Time Point 15 min, 0.2 nM): 0.9 ± 0.3 percentage of the total applied activity
